Results from ChEMBL document CHEMBL4041483, “Aldgamycins J-O, 16-Membered Macrolides with a Branched Octose Unit from Streptomycetes sp. and Their Antibacterial Activities” (2016).
Converted amounts (≈) assume the structure as drawn.

Tests used:
Format in all cases: functional
[1] = test system: Aspergillus niger; experiment: Antifungal activity against Aspergillus niger R330 incubated at room temperature for 30 mins followed by incubation at 32 degC for 12 hrs by two-fold dilution method
[2] = test system: Escherichia coli; experiment: Antibacterial activity against Escherichia coli ATCC 0111 incubated at room temperature for 30 mins followed by incubation at 37 degC for 12 hrs by two-fold dilution method
[3] = test system: Candida albicans; experiment: Antifungal activity against Candida albicans FIM709 incubated at room temperature for 30 mins followed by incubation at 32 degC for 12 hrs by two-fold dilution method
[4] = test system: Staphylococcus aureus; experiment: Antibacterial activity against Staphylococcus aureus 209P incubated at room temperature for 30 mins followed by incubation at 37 degC for 12 hrs by two-fold dilution method

| Structure (SMILES) | MIC [1] [µg/mL] | MIC [2] [µg/mL] | MIC [3] [µg/mL] | MIC [4] [µg/mL] |
| --- | --- | --- | --- | --- |
| NC[C@H]1O[C@H](O[C@H]2[C@H](O)[C@@H](O[C@H]3O[C@H](CO)[C@@H](O)[C@H](N)[C@H]3O)[C@H](N)C[C@@H]2N)[C@H](N)C[C@@H]1O [TOBRAMYCIN] |  | 2 (≈ 4.28 µM) |  | 0.2 (≈ 0.428 µM) |
| CO[C@@H]1[C@H](O)[C@@H](C)O[C@@H](OC[C@H]2[C@@H]3O[C@H]3CCC(=O)[C@H](C)C[C@H](C)[C@H](O[C@@H]3O[C@H](C)C[C@](O)([C@H](C)O)[C@H]3O)[C@@H](C)/C=C/C(=O)O[C@@H]2C)[C@@H]1OC | > 1000 | > 1000 | > 1000 | > 1000 |
| CO[C@@H]1[C@H](O)[C@@H](C)O[C@@H](OC[C@H]2[C@@H]3O[C@H]3CCC(=O)[C@@](C)(O)C[C@H](C)[C@H](O[C@@H]3O[C@H](C)C[C@](O)([C@H](C)O)[C@H]3O)[C@@H](C)/C=C/C(=O)O[C@@H]2C)[C@@H]1OC | > 1000 | > 1000 | > 1000 | 500 (≈ 682 µM) |
| CO[C@@H]1[C@H](O)[C@@H](C)O[C@@H](OC[C@H]2/C=C/C=C/C(=O)[C@H](C)C[C@H](C)[C@H](O[C@@H]3O[C@H](C)C[C@](O)([C@H](C)O)[C@H]3O)[C@@H](C)/C=C/C(=O)O[C@@H]2C)[C@@H]1OC | > 1000 | > 1000 | > 1000 | 125 (≈ 179 µM) |
| C[C@@H]1C[C@@H]([C@H](O)CC2CC(=O)NC(=O)C2)C(=O)[C@@H](C)C1 [CYCLOHEXIMIDE] | 32 (≈ 114 µM) |  | 64 (≈ 227 µM) |  |
| CO[C@@H]1[C@H](O)[C@@H](C)O[C@@H](OC[C@H]2/C=C/CCC(=O)[C@@](C)(O)C[C@H](C)[C@H](O[C@@H]3O[C@H](C)C[C@](O)([C@H](C)O)[C@H]3O)[C@@H](C)/C=C/C(=O)O[C@@H]2C)[C@@H]1OC | > 500 | > 500 | > 500 | 32 (≈ 44.6 µM) |

Other lines, results leading:

| MIC [1] [µg/mL] | MIC [2] [µg/mL] | MIC [3] [µg/mL] | MIC [4] [µg/mL] | Structure (SMILES) |
| --- | --- | --- | --- | --- |
| > 500 | > 500 | > 500 | 4 (≈ 5.71 µM) | CO[C@@H]1[C@H](O)[C@@H](C)O[C@@H](OC[C@H]2[C@@H]3O[C@H]3/C=C/C(=O)[C@@](C)(O)C[C@H](C)[C@H](O[C@@H]3O[C@H](C)C[C@H](OC)[C@H]3O)[C@@H](C)/C=C/C(=O)O[C@@H]2C)[C@@H]1OC |
| > 500 | > 500 | > 500 | 500 (≈ 713 µM) | CO[C@@H]1[C@H](O)[C@@H](C)O[C@@H](OC[C@H]2/C=C/CCC(=O)[C@H](C)C[C@H](C)[C@H](O[C@@H]3O[C@H](C)C[C@](O)([C@H](C)O)[C@H]3O)[C@@H](C)/C=C/C(=O)O[C@@H]2C)[C@@H]1OC |
| > 500 | > 500 | > 500 | 32 (≈ 44 µM) | CO[C@@H]1[C@H](O)[C@@H](C)O[C@@H](OC[C@H]2/C=C/CCC(=O)[C@H](C)C[C@H](C)[C@H](O[C@@H]3O[C@H](C)C[C@@]4(OC(=O)O[C@H]4C)[C@H]3O)[C@@H](C)/C=C/C(=O)O[C@@H]2C)[C@@H]1OC |
| > 500 | > 500 | > 500 | 16 (≈ 22.4 µM) | CO[C@@H]1[C@H](O)[C@@H](C)O[C@@H](OC[C@H]2/C=C/C=C/C(=O)[C@@](C)(O)C[C@H](C)[C@H](O[C@@H]3O[C@H](C)C[C@](O)([C@H](C)O)[C@H]3O)[C@@H](C)/C=C/C(=O)O[C@@H]2C)[C@@H]1OC |
